Experimental data from patent US9499484B2, “Indole, indoline derivatives, compositions comprising them and uses thereof” (priority 2012, dated 2016).
Where a name gives a salt, the structure may show the parent alone.

Key:
[1] = tested on: ChE (AChE, BuChE) in plasma, muscle, spleen, brain
Method: E. Acetylcholinesterase (AChE) and Butylcholinesterase (BuChE) Inhibition Ex Vivo
Compounds of the invention or saline were administrated by intraperitoneal (ip) injection or gavage to groups of 6-7 male ICR or Balb C mice (5-6 weeks of age). The mice were sacrificed 15, 30, 60 or 120 min after drug administration and the brain (minus cerebellum), spleen, and muscle were rapidly removed, weighed and put on ice. Blood was also collected in heparinised tubes, centrifuged at 14000 rpm at room temperature for 4 mM to provide plasma. Phosphate buffer pH 7 was added to each tissue to produce concentrations of 1 mg/mL for brain and spleen and 8 mg/mL for muscle. The tissues were homogenised in cold phosphate buffer pH 7 containing 0.1% Triton and centrifuged at 14000 rpm. Aliquots of plasma and the supernatant of all tissues were incubated with AcTh or BuTh and DTNB in phosphate buffer pH 7 and the rate of development of the yellow colour was measured as described above. Enzyme activity was measured for each time and drug concentration and percent inhibition of the AChE or BuChE activity was calculated by comparison with that of control mice injected with saline. Results are represented as p moles acetylthiocholine or butythiocholine hydrolysed/min/gm tissue.

[2] = tested on: NO, RAW 264.7 cells; experiment: NO reduction in LPS-stimulated RAW 264.7 macrophages; format: cell-based, mouse; conditions: Mus musculus, RAW264.7, 24 h, read-out: Reduction in NO levels, RAW Macrophages % peak reduction
[3] = tested on: cytokine levels in spleen and brain; experiment: Anti-inflammatory activity in LPS-injected mice, cytokine protein levels; format: in vivo, mouse; conditions: 8 h after ip LPS 10 mg/kg, two doses
Method: G. Evaluation of Anti-Inflammatory Activity in Mice
For measurement of cytokine protein levels, mice were treated with saline or LPS as described above and sacrificed 4 h or 8 h after drug administration, the spleen and rapidly brain removed. The brain was separated into fore, mid and hind sections (minus cerebellum) and frozen in liquid nitrogen and stored at −80° C. until use. […] The supernatant was rapidly frozen in liquid nitrogen and stored until use at −80° C. Cytokines were detected by using Elisa kits (Biolegend) and protein determination performed with Bradford reagent (Bio-RAD, 500-0006).

[4] = tested on: NO, BV2 mouse microglial cells; experiment: NO reduction in LPS-stimulated BV2 microglia; format: cell-based; conditions: for Reduction in NO levels by at >20%, BV2 Microglia range: concentration range, None = no reduction up till 100 nM
Method: The BV2 mouse microglial cells were created by infecting primary mouse microglia with v-raf/v-myc oncogen-carrying retrovirus and donated by Dr. Sigal Fleisher—Berkovich (Ben-Gurion University of the Negev). The cells were cultured in RPMI 1640 containing 0.4 mM L-Glutamine, 10% FCS, 100 units/ml penicillin, 100 μg/ml streptomycin and maintained in a humidified incubator at 37° C. with 5% CO2. For measurement of the effect of compounds on the release of NO the cells were seeded in a density of 80,000 cells/ml and confluence of about 60%, and incubated with test compounds (in the absence of FCS) for […] All the medium was removed and fresh medium containing FCS and LPS (10 μg/ml) added and the cells maintained at 37° C. for 24 h. The release of NO into the medium was determined by measurement of nitrite levels using Griess reagent reaction. For measurement of protein levels of cytokines cells were seeded in a density of 80,000 and incubated with test compounds (in the absence of FCS) and then with LPS as described above. The medium was centrifuged and supernatants collected after 6 h for TNF-α (Biolegend) and after 20 h for IL-6 (Biolegend).

[5] = tested on: DNBS-induced colon inflammation; experiment: DNBS-induced colitis in rats (model of Crohn's disease); format: in vivo, rat; conditions: rectal 1 mg/kg (2.5 μmoles/kg) prior to and after DNBS
Method: H. Measurement of Effect of Compounds of the Invention in a Model of Crohn's Disease in Rats
Inflammation in the colon was induced in male rats of the Sabra strain (250-300 g) by intra-colonic administration of 1 mL of dinitrobenzensulfonic acid (DNBS) (35 mg/mL in ethanol 25% v/v) under isoflurane anaesthesia. The novel drugs (827B or 680D) or saline was given rectally 1 h prior to DNBS at a dose of 1 mg/kg (2.5 μmoles/kg), and then twice daily at the same dose 12, 24, 36, 48, 60 and 72 h later. A group of control rats received saline rectally instead of DNBS and were pre-treated with saline instead of drug. The rats were anaesthetized by ip injection of a mixture of xylazine 3 mg, ketamine 85 mg, 1 mL/kg. The colon was exposed through a longitudinal abdominal incision. The area of ulceration was estimated. Segments of 10 cm of the colon were removed, cut open and rinsed with ice-cold saline. After cleaning with cold saline (0.9%) the wet weight of the colon was measured. Pieces of colon were analysed for activity of myeloperoxidase (MPO), a marker of neutrophil granulocyte infiltration into the inflamed colon tissue. One unit of MPO activity was defined as the amount of enzyme present that produced a change in absorbance of […] at 25° C. Results were quantified as U/g protein.

[6] = tested on: TNF-α, BV2 mouse microglial cells; experiment: TNF-α reduction in LPS-stimulated BV2 microglia; format: cell-based
[7] = tested on: TNF-α, RAW 264.7 cells; experiment: TNF-α reduction in LPS-stimulated RAW 264.7 macrophages; format: cell-based, mouse; conditions: Mus musculus, RAW264.7, 6 h, read-out: Reduction in TNF-α levels, RAW Macrophages % peak reduction
[8] = Radical scavenging, Sin1; format: biochemical; conditions: mean ± SD, three independent experiments
[9] = biological target: T1, BuChE (UniProt P81908); format: biochemical, human or equine serum; conditions: read-out: IC50 BuChE 120 min; Table 3; 120 min incubation
T1 construct: 120 min incubation; BuChE IC50
Method in brief: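 Enzyme incubated at 37° C with 6-10 compound concentrations, sampled at 15, 30, 60 and 120 min; residual activity read kinetically on a microplate reader. Percent inhibition relative to no-drug enzyme; BuChE run likewise with 0.075M butylthiocholine iodide as substrate.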

[10] = Fall in body temperature in rats; format: in vivo, rat; conditions: ip injection of two doses
Method: F. Temperature Measurements in Rats
Monitoring body temperature at different times after drug administration enables one to assess in vivo both the extent of drug effect and its duration in the same group of rats. Test compounds or saline were administrated by ip injection or by gavage to female Wistar rats aged 3-4 months. Body temperature was measured rectally by means of a thermocouple probe, before and every 30 min after drug administration until this returned to pre-injection values. The change in body temperature induced by the drug was computed for each dose at each time point in comparison with the temperature prior to drug injection.

[11] = Radical scavenging, glucose oxidase/luminol luminescence; format: biochemical; conditions: concentration reducing luminescence/radical by 50%; mean ± SD, three independent experiments
Method in brief: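 Glucose oxidase, luminol, sodium selenite and Co2+ in HBSS generate H2O2-driven oxidant luminescence. Compounds were added at several concentrations. The value is the concentration reducing luminescence by 50%.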

[12] = tested on: primary neurones in culture; conditions: Chyan et al., J. Biol. Chem. 1999; cited from earlier work
[13] = tested on: conversion of MCI to AD; conditions: chronic treatment; cited from earlier work

With `CCN(C)C(=O)Oc1ccc2c(c1)NCC2CCC(=O)OC.CS(=O)(=O)O` (stereo not shown) [AN-680D, Methyl 3-(6-((ethyl(methyl)carbamoyl)oxy)indolin-3-yl)propanoate methanesulfonate] the “inhibition of ChE in mouse brain” value ([1]; 100 μmoles/kg) was “no significant inhibition”, the Emax [2] was 47.8 ± 1.8% and the “reduction in cytokine levels in cerebral cortex (FIG. 6B)” value [3] was “reduction”. For the same compound, the “reduction in cytokine levels in spleen (FIG. 6A)” value [3] was “reduction”, the “Reduction in NO levels, BV2 Microglia % peak reduction” value [4] was 37.1 ± 5.3% and the “Reduction in NO levels by at >20%, BV2 Microglia range” value [4] was 10^−3-100 nM. The “reduced MPO activity” value [5] was 80%, the reduced colon weight [5] was 30% and the “reduced the area of colonic ulceration” value [5] was 95%.

In the case of `CCN(C)C(=O)Oc1cccc2c1CCN2` [AN-854, Indolin-4-yl ethyl(methyl)carbamate hydrochloride], the “Reduction in TNF-α levels, BV2 Microglia % peak reduction” value [6] is reported as 8.4 ± 1.7%, the “Reduction in TNF-α levels, BV2 Microglia range” value ([6]; concentration range, None = no reduction up till 100 nM) is reported as 100 nM and the “inhibited ChE in the mouse brain” value ([1]; 50 μmoles/kg) is reported as 30%. The “ChE inhibition in plasma, muscle, and spleen” value ([1]; after ip and or oral administration in mice) was “inhibited ChE”, the Emax [2] was 45.2 ± 1.4% and the Emax [7] was 41.1 ± 3.8%. For the same compound, the IC50 [8] was 570 ± 10 nM, the “Reduction in NO levels by at >20%, BV2 Microglia range” value [4] was “None” and the IC50 [9] was 700 nM. For the same compound, the “fall in body temperature in rats (FIG. 4)” value [10] was “fall in body temperature” and the IC50 [11] was 1380 ± 100 nM.

In the case of `O=C(O)CCc1c[nH]c2ccccc12` [IPA, 3-indole-propionic acid], the “protection of primary neurones against oxidative damage induced by beta amyloid” value [12] is listed as “protects primary neurones in culture against oxidative damage induced by beta amyloid”.

For `COc1cc2c(cc1OC)C(=O)C(CC1CCN(Cc3ccccc3)CC1)C2` (stereo not shown) [donepezil], the “proportion of MCI patients converting to AD” value [13] is given as “did not reduce the proportion converting to AD”.
